Reference: PubChem BioAssay AID179 (DTP/NCI, 2004)
Several values for one entry are separate records, joined by “and”; a condition that tells them apart may be missing. Identical values can stand only once. Activity calls are given as the source filed them.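 The calls were made as follows: active = compounds giving half or more protection of infected cells from virus-caused growth loss, again on retest; inactive = the rest.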

Tested on: CEM cells HIV-1 protection, formazan growth assay
Assay: NCI AIDS Antiviral Assay
Conditions: for IC50: measured here: growth of uninfected CEM cells
Procedure, shortened: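 Protection of CEM cells against HIV-1 was scored from cell growth (soluble formazan) across five concentrations, with parallel uninfected cells. Lack of protection may reflect toxicity.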

Row | SMILES | outcome | EC50 [µM] | IC50
1 | CC(C)C1=CC2=CC=C3C(C)(C)CC(=O)OC3(C)CC2=C(O)C1=O (stereo not given) | inactive | – | –
2 | CC(=O)OCCSSCCOC(C)=O | – | > 200 | 89.1 µM
3 | Cc1ccc(NC2=N/C(=C/c3ccco3)C(Cl)=N2)cc1 | – | > 200 | 158 µM
4 | O=C(Nc1ccc(Cl)cc1)Nc1cccc2nsnc12 | – | > 32.4 | 20.4 µM
5 | CCCCCC(C/C=N/N(C)C)C(O)(C(F)(F)F)C(F)(F)F (stereo not given) | – | > 200 | 14.5 µM
6 | CCOc1ccccc1NC(=O)C1=C(C)NC(C)=C(C(=O)Nc2ccccc2OCC)C1c1ccc(NC(C)=O)cc1 | – | > 12.6 | > 12.6 µM
7 | CC(C)(C)C(=O)O[C@@H]1COC2C(O)COC21 (stereo not given in full) | – | > 1070 | 977 µM
8 | COc1cc2cc(C(=O)N3CC(CCl)c4ccc(N(C)C)cc43)[nH]c2c(OC)c1OC (stereo not given) | – | > 2 | 0.138 µM
9 | O=C1CN(O)C(c2ccccc2)=c2cc(Cl)ccc2=N1 | – | > 200 | > 200 µM
10 | CC1(C)OCC(C)(C)C(O)C1=O (stereo not given) | – | > 1450 | 977 µM
11 | Cc1cc(CC(=O)NCCO)n(CCO)c(=O)c1 | – | > 977 | > 977 µM
12 | COc1ccc(NC(=O)CC/C(CC(=O)C(C)(C)C)=N\NC(=O)C(=O)NN)cc1 | inactive | – | –
13 | COCCCC(NC(=O)C(CC(C)C)NC(=O)OCc1ccc(OC)cc1)C(N)=O (stereo not given) | – | > 200 | 182 µM
14 | CC(CCC(=O)O)c1ccc(Br)cc1 (stereo not given) | inactive | – | –
15 | O=C1NCC2(CCNCC2)N1c1ccccc1 | – | > 200 | > 200 µM
16 | CCCCCCc1nn2c(-c3ccncc3)nnc2s1 | – | > 100 | 52.5 µM
17 | CN1CCc2cc3c4cc2C1Cc1ccc(cc1)Oc1cc(ccc1O)CC1c2c(cc(O)c(c2O4)O3)CCN1C (stereo not given) | inactive | – | –
18 | O=C(O)COc1cccc2ccccc(=O)c12 | – | > 200 | > 200 µM
19 | CCN(/C=C1/C(=O)C(c2ccccc2)N(c2ccccc2)C1=O)CC (stereo not given) | – | > 200 | > 200 µM
20 | O=S(=O)(O)CCCNC(CO)(CO)CO | – | > 200 | > 200 µM
21 | COc1cc(N(CCC#N)CCC#N)ccc1/C(N=Nc1ccc(C(=O)O)cc1)=N/NC(=O)c1cc(Br)ccc1O | – | > 200 | 26.3 µM

Row | SMILES | outcome | EC50 [µM] | IC50
22 | O=S(=O)(O)CCCCBr | – | > 200 | > 200 µM
23 | CC12CCC(C(S(=O)(=O)Nc3ccccc3)C1=O)C2(C)C (stereo not given) | – | > 200 | 138 µM
24 | COC(=O)c1cc(C(=O)O)c(=O)n2ccccc12 | – | > 200 | 174 µM
25 | Cc1ccc(N(CC(=O)O)S(=O)(=O)c2ccccc2)cc1 | inactive | – | –
26 | CCOC(=O)c1cn(CC)c2ccc3ccsc3c2c1=O | inactive | – | –
27 | CCCCn1c(C)c(C)c2c1NN=C(C#N)S2(=O)=O | – | > 200 | > 200 µM
28 | CCOC(=O)CSc1nnc(CSc2nc(-c3ccccc3)c(-c3ccccc3)[nH]2)n1-c1ccccc1 | – | > 13.5 | > 13.5 µM
29 | O=C[C@@H](CO)O[C@H](C=O)c1c[nH]c(=O)[nH]c1=O | – | > 1020 | 107 µM
30 | Cc1ccc(S(=O)(=O)N2CCCN(S(=O)(=O)c3ccc(C)cc3)CCN(S(=O)(=O)c3ccc(C)cc3)CCCSCC2)cc1 | – | > 5.5 | > 5.5 µM
31 | COc1ccc(N2C(=Nc3ccccc3)SC(=N/S(=O)(=O)c3ccccc3)/C2=N\S(=O)(=O)c2ccccc2)cc1 | – | > 200 | 11.7 µM
32 | CC1(C)CC(Br)(C(Br)c2ccccc2)C(=O)c2ccccc21 (stereo not given) | – | > 200 | 3.89 µM
33 | CCOC(=O)OC(=S)N(C1CCCCC1)C1CCCCC1 | – | > 200 | 97.7 µM
34 | Cc1ccc(S(=O)(=O)n2cncc2CO)cc1 | – | > 200 | > 200 µM
35 | O=C(/C=C/c1ccccc1)c1cc2c(cc1O)OCO2 | – | > 70.8 | 5.25 µM
36 | OCC1CC(F)C(n2cnc3c(NOCc4ccccc4)ncnc32)O1 (stereo not given) | – | > 100 | > 100 µM
37 | O=C1C2C=CC(C2)C(c2ccc(O)cc2)N1O (stereo not given) | – | > 776 | > 776 µM
38 | CC(C)CCC[C@H](C)[C@H]1CC[C@H]2[C@@H]3CC=C4CC(OC(=O)OC5CCC6(C)CC7CCC6(OO7)C5(C)C)CC[C@]4(C)[C@H]3CC[C@]12C (stereo not given in full) | – | > 200 | > 200 µM
39 | COC(=O)/C=C\C(C#N)(C#N)N=Cc1ccc(C)s1 | – | > 2 | 0.575 µM
40 | Cc1ccc(/C(O)=C/c2nc3ccccc3s/c2=N/CS(=O)(=O)c2ccc(C)cc2)cc1 | – | > 200 | > 200 µM
41 | O=C(Cc1nc2ccccc2s1)C(=O)Nc1ccc(Cl)cc1Cl | inactive | – | –
42 | COc1ccc([C@H]2CC(=O)C[C@H](c3ccc(OC)cc3OC)C23C(=O)c2ccccc2C3=O)c(OC)c1 | – | > 200 | 151 µM

Row | SMILES | outcome | EC50 [µM] | IC50
43 | C=CCP(=O)(CC=C)C(Cl)Cl | – | > 200 | > 200 µM
44 | CC1COS(=O)N1c1ccccc1 (stereo not given) | – | > 479 | > 479 µM
45 | CCOC(=O)C/C(O)=C(/C=N/C(=S)NNC(C)=O)C(=O)OCC | – | > 200 | > 200 µM
46 | Cc1cccc2c(=O)c3cccc([C@H](C)C(=O)O)c3oc12 | – | > 200 | > 200 µM
47 | CC1=C(C(=O)Nc2cccc(C(F)(F)F)c2)C(c2ccccc2F)C(C(=O)Nc2cccc(C(F)(F)F)c2)=C(C)N1 | – | > 32.4 | 18.6 µM
48 | S=C1NC2(CCCCC2)NC12CCCCC2 | – | > 200 | > 200 µM
49 | O=C(CCCNC(=O)OCc1ccccc1)OCc1ccc2c(c1)C(=O)c1ccccc1C2=O | – | > 200 | > 200 µM
50 | Cc1ccc(C)c(NC(=O)CC2C(=O)Nc3ccccc3S2(=O)=O)c1 (stereo not given) | – | > 4.07 | > 4.07 µM
51 | CCNC(=S)N/N=C(\C)c1cccc(C)n1 | – | > 2 | 1.1 µM
52 | Cc1ccc(Nc2nc(NS(=O)(=O)c3cc(C(=O)Nc4ccc(Cl)cc4)c(Cl)cc3S)n[nH]2)cc1 | – | > 195 | 178 µM
53 | O=C(O)CCC1c2[nH]c3ccccc3c2CCN1Cc1ccccc1 (stereo not given) | inactive | – | –
54 | CC12CCC(C=C1N1CCCCC1)C(C)(C)O2 (stereo not given) | – | > 1070 | > 1070 µM
55 | c1cc(NC2=NCCO2)c2c(c1)OCO2 | – | > 200 | > 200 µM
56 | C=[N+]([O-])CC[C@@]1(O)C[C@H](n2ccc(=O)[nH]c2=O)O[C@@H]1CO[Si](C)(C)C(C)(C)C | – | > 200 | 44.7 µM
57 | Cc1ccc(S(=O)(=O)NCCSSCCNS(=O)(=O)c2ccc(C)cc2)cc1 | – | > 200 | 19.5 µM and 26.9 µM
58 | O=[N+]([O-])c1cccc(S(=O)(=O)N/N=C/c2cc(I)cc([N+](=O)[O-])c2O)c1 | – | > 363 | 63.1 µM
59 | Cc1cccc(NS(=O)(=O)c2ccc3c(c2)OCCOCCOCCOCCO3)c1 | – | > 200 | 158 µM
60 | CC(=O)NC1COC(COC(=O)CCCCCCCCCCNC(=O)c2ccc([N+](=O)[O-])c3c(=O)c4ccccc4[nH]c23)C(O)C1OC(C)C(=O)NC(C(=O)NC(CCC(N)=O)C(=O)OCc1ccccc1)C(C)C (stereo not given) | – | > 9.55 | > 9.55 µM
61 | CN1CCCC2[C@@H]3CCC4=C(O)C(=O)CC[C@]4(C)C3CC[C@@]21C (stereo not given in full) | – | > 74.1 | > 74.1 µM
62 | Cc1cc(=O)c2ccccc2o1 | inactive | – | –
